“And” between values parts separate entries of the source, which are not always exact repeats. Equal entries are not always repeated.
Biological target: T1, Alpha-1A adrenergic receptor (Rattus norvegicus, UniProt P43140)
T1 sequence (P43140 whole entry): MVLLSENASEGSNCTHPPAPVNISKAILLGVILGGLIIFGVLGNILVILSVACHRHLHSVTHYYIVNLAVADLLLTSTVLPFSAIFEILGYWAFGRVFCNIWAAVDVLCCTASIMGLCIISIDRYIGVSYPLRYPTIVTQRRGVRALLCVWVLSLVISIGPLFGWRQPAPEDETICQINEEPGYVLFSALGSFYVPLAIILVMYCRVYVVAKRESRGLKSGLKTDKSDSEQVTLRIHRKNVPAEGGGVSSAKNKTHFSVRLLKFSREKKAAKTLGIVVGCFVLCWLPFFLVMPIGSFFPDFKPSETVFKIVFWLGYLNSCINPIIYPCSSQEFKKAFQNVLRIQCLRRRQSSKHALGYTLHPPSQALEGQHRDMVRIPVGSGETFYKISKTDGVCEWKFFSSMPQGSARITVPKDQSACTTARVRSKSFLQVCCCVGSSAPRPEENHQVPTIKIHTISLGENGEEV

Which Ki does the source give for `NCCc1ccc(O)cc1` here?
The Ki was 5900 nM and 23000 nM.

For `CC(C)NC[C@@H](O)c1ccc(O)c(O)c1`, which Ki is on record?
The Ki was 38000 nM and > 70000 nM.

With `CN(C)CCC=C1c2ccccc2CCc2ccccc21` as the molecule, how does the Ki read?
The Ki was 530 nM.

For `CC[C@@H](CO)NC(=O)[C@@H]1C=C2c3cccc4c3c(cn4C)C[C@H]2N(C)C1`, which Ki is on record?
The Ki was 4700 nM and 1900 nM.

With `CN1C2CCC1CC(OC(c1ccccc1)c1ccccc1)C2` (stereo unspecified) as the molecule, how does the Ki read?
The Ki was 420 nM and 47 nM.

How did the Ki turn out when `NCC(O)c1ccc(O)cc1` (racemic) [Octopamine,(+/-)] was run?
Its Ki is 1560 nM and 11000 nM.

With `CNC(=S)NCCCCc1cnc[nH]1` [1-[4-(1H-imidazol-5-yl)butyl]-3-methylthiourea] as the molecule, how does the Ki read?
The Ki was 1030 nM and 1900 nM.

How did the Ki turn out when `CN1CC(C(=O)N[C@]2(C)O[C@@]3(O)C4CCCN4C(=O)[C@H](Cc4ccccc4)N3C2=O)CC2c3cccc4[nH]cc(c34)CC21` (stereo partly drawn) [7-Methyl-4,6,6a,7,8,9,10,10a-octahydro-indolo[4,3-fg]quinoline-9-carboxylic acid ((2R,5S,10bS)-5-benzyl-10b-hydroxy-2-methyl-3,6-dioxo-octahydro-oxazolo[3,2-a]pyrrolo[2,1-c]pyrazin-2-yl)-amide] was run?
Its Ki is 2.4 nM and 3.5 nM.

Which Ki does the source give for `CN1C[C@H](C(=O)N[C@]2(C)O[C@@]3(O)[C@@H]4CCCN4C(=O)[C@H](Cc4ccccc4)N3C2=O)C=C2c3cccc4[nH]cc(c34)C[C@H]21` [12'-hydroxy-2'-methyl-5'alpha-(phenylmethyl)ergotaman-3',6',18-trione] here?
Its Ki is 12 nM.

How did the Ki turn out when `N[C@H]1C[C@@H]1c1ccccc1` [(1S,2R)-(+)-2-phenylcyclopropylamine] was run?
Its Ki is 940 nM and 7000 nM.

For `CCN(CC)C(=O)[C@@H]1C=C2c3cccc4[nH]cc(c34)C[C@H]2N(C)C1` [(4R,7R)-N,N-diethyl-6-methyl-6,11-diazatetracyclo[7.6.1.0^{2,7}.0^{12,16}]hexadeca-1(16),2,9,12,14-pentaene-4-carboxamide], which Ki is on record?
The Ki was 220 nM.

How did the Ki turn out when `CC(C)C[C@H]1C(=O)N2CCCC2[C@]2(O)O[C@](NC(=O)[C@@H]3C=C4c5cccc6[nH]cc(c56)CC4N(C)C3)(C(C)C)C(=O)N12` (stereo partly drawn) [ALPHA-ERGOCRYPTINE] was run?
Its Ki is 8 nM and 9 nM.

How did the Ki turn out when `CN1CCc2cccc3c2[C@H]1Cc1ccc(O)c(O)c1-3` [APOKYN] was run?
The Ki was 950 nM and 2300 nM.

`CC(C)C[C@H]1C(=O)N2CCC[C@H]2[C@]2(O)O[C@](NC(=O)[C@@H]3C=C4c5cccc6[nH]c(Br)c(c56)C[C@H]4N(C)C3)(C(C)C)C(=O)N12` [Bromocriptine+ (GTP+)] was tested. Which Ki did it give?
The Ki was 9 nM and 16 nM.

With `COc1cc2c3cc1Oc1cc(ccc1O)C[C@H]1c4c(cc(OC)c(O)c4Oc4ccc(cc4)C[C@@H]3N(C)CC2)CC[N+]1(C)C` [CAS_57-94-3] as the molecule, how does the Ki read?
Its Ki is > 60000 nM and 6900 nM.

How did the Ki turn out when `CC(CO)NC(=O)C1C=C2c3cccc4[nH]cc(c34)CC2N(C)C1` (stereo unspecified) [CAS_60-79-7] was run?
Its Ki is 1400 nM and 1800 nM.

Which Ki does the source give for `C[C@@H](N)Cc1ccc(O)cc1` [CAS_103-86-6] here?
Its Ki is 5000 nM and 39000 nM.

`c1ccc2c(c1)OCC(CN1CCN(CC3COc4ccccc4O3)CC1)O2` (stereo unspecified) [CAS_7762-32-5] was tested. Which Ki did it give?
Its Ki is 100 nM and 19 nM.

How did the Ki turn out when `CC(C)C1(NC(=O)C2CC3c4cccc5[nH]cc(c45)CC3N(C)C2)OC2(O)C3CCCN3C(=O)C(Cc3ccccc3)N2C1=O` (stereo unspecified) [Dihydroergocristine] was run?
The Ki was 10 nM and 2.4 nM.

`CC(C)[C@H]1C(=O)N2CCC[C@H]2[C@]2(O)O[C@](NC(=O)[C@@H]3C=C4c5cccc6[nH]cc(c56)C[C@H]4N(C)C3)(C(C)C)C(=O)N12` [ERGOCORNINE] was tested. Which Ki did it give?
The Ki was 11 nM and 10 nM.

With `C#CCN(C)Cc1ccccc1` [N-benzyl-N-methylprop-2-yn-1-amine] as the molecule, how does the Ki read?
Its Ki is 14000 nM and > 70000 nM.

Which Ki does the source give for `NNc1nncc2ccccc12` [NSC_3637] here?
The Ki was 7700 nM and 52000 nM.

With `N=c1nc(N2CCCCC2)cc(N)n1O` [NSC_4201] as the molecule, how does the Ki read?
The Ki was > 60000 nM and 29000 nM.

`OC(CCN1CCCCC1)(c1ccccc1)C1CCCCC1` (stereo unspecified) [NSC_5572] was tested. Which Ki did it give?
Its Ki is 5000 nM and 18000 nM.

Which Ki does the source give for `ClCCN(Cc1ccccc1)Cc1ccccc1` [NSC_5820] here?
Its Ki is 270 nM and 83 nM.

How did the Ki turn out when `CC(C)C[C@H]1C(=O)N2CCC[C@H]2[C@]2(O)O[C@](NC(=O)[C@@H]3C[C@@H]4c5cccc6[nH]cc(c56)C[C@H]4N(C)C3)(C(C)C)C(=O)N12` [NSC_159729] was run?
Its Ki is 7 nM and 2.4 nM.

How did the Ki turn out when `CC(C)C1C(=O)N2CCCC2C2(O)OC(NC(=O)C3CC4c5cccc6[nH]cc(c56)CC4N(C)C3)(C(C)C)C(=O)N12` (stereo unspecified) [NSC_168871] was run?
The Ki was 9 nM and 3.7 nM.

`CC(C)[C@@]1(NC(=O)[C@@H]2C=C3c4cccc5[nH]cc(c45)C[C@H]3N(C)C2)O[C@@]2(O)[C@@H]3CCCN3C(=O)[C@H](Cc3ccccc3)N2C1=O` [SMR000058447] was tested. Which Ki did it give?
The Ki was 18 nM and 6.3 nM.

How did the Ki turn out when `CCCCCC(C)N` (stereo unspecified) [Tuaminoheptane] was run?
Its Ki is 7100 nM and 68000 nM.

How did the Ki turn out when `NCCc1c[nH]c2ccc(O)cc12` [[3H]-5-HT] was run?
Its Ki is 18000 nM and 23000 nM.

Which Ki does the source give for `C[C@H](N)Cc1ccccc1` [beta-aminopropylbenzene] here?
The Ki was 1600 nM and 10000 nM and 2200 nM and 12000 nM.

— BindingDB's records for PubMed 17827 (1977)
